Assay results reported in EP2562253B1 (priority 2010, dated 2011).
Read-outs that look alike come from different tables or passages of the source.

Key:
wild-type enzyme RBS [1] = format: biochemical, Burkholderia sp. YT strain
wild-type enzyme RBS [2] = assay: Reaction inhibition of wild-type enzyme RBS by various compounds; format: biochemical, Burkholderia sp. YT strain; details: 3-quinuclidinone 5 mM, NADPH 0.25 mM, pH 6.5, 30°C
Protocol: A cell-free extract of the wild-type enzyme was obtained as in Reference Example 4. The 3-quinuclidinone reduction activity of this cell-free extract was measured, and given as activity without inhibitor. The cell-free extract was added to 100 mM phosphate buffer (pH 6.5) containing the compounds shown in Table 2, 3-quinuclidinone (5 mM) and the coenzyme NADPH (0.25 mM), and reacted for 1 minute at 30°C, and reduction activity of 3-quinuclidinone was calculated from the rate of decrease in absorbancy at 340 nm.
Relative activity was calculated by the following formula, and used as an indicator of reaction inhibition by the various compounds. Relative activity (%) = [enzyme activity in presence of compound]/[enzyme activity without inhibitor] × 100 [formula]

## OC(CCCl)c1cccs1 (stereo not drawn) [3-Chloro-1-(2-thienyl)propan-1-ol]
wild-type enzyme RBS [1]; pH 6.5
  Remaining activity (%): 0%

## O=C(CCCl)c1cccs1 [3-Chloro-1-(2-thienyl)propan-1-one]
wild-type enzyme RBS [1]; pH 6.5
  Remaining activity (%): 0%

## Cl.O=C1CN2CCC1CC2 [3-Quinuclidinone hydrochloride]
wild-type enzyme RBS [1]; pH 6.5, 310000 µM
  Remaining activity (%): 73%
wild-type enzyme RBS [1]; pH 6.5, 620000 µM
  Remaining activity (%): 44%

## CC(C)=O [Acetone]
wild-type enzyme RBS [1]; pH 6.5
  Remaining activity (%): 80%

## CC(=O)c1ccccc1 [Acetophenone]
wild-type enzyme RBS [1]; pH 6.5
  Remaining activity (%): 81%

## CC(=O)c1cccs1 [Acetylthiophene]
wild-type enzyme RBS [1]; pH 6.5
  Remaining activity (%): 72%

## O=C(CCl)c1ccccc1 [Phenacyl chloride]
wild-type enzyme RBS [1]; pH 6.5
  Remaining activity (%): 0%

## O=C(CCl)c1cccc(Cl)c1 [m-chlorophenacyl chloride]
wild-type enzyme RBS [1]; pH 6.5
  Remaining activity (%): 0%

## Potassium chloride
wild-type enzyme RBS [2]; additive 0.31 M, 310000 µM
  Relative activity (%): 14%
wild-type enzyme RBS [2]; additive 0.62 M, 620000 µM
  Relative activity (%): 5%
wild-type enzyme RBS [1]; pH 6.5, 310000 µM
  Remaining activity (%): 46%
wild-type enzyme RBS [1]; pH 6.5, 620000 µM
  Remaining activity (%): 26%

## Sodium chloride
wild-type enzyme RBS [2]; additive 0.31 M, 310000 µM
  Relative activity (%): 15%
wild-type enzyme RBS [2]; additive 0.62 M, 620000 µM
  Relative activity (%): 3%
wild-type enzyme RBS [1]; pH 6.5, 310000 µM
  Remaining activity (%): 46%
wild-type enzyme RBS [1]; pH 6.5, 620000 µM
  Remaining activity (%): 24%

## Sodium sulfate
wild-type enzyme RBS [2]; additive 0.31 M, 310000 µM
  Relative activity (%): 31%
wild-type enzyme RBS [2]; additive 0.62 M, 620000 µM
  Relative activity (%): 17%
wild-type enzyme RBS [1]; pH 6.5, 310000 µM
  Remaining activity (%): 76%
wild-type enzyme RBS [1]; pH 6.5, 620000 µM
  Remaining activity (%): 79%
